# In patent US9394544B2, “Ameliorating oxidative stress in neurodegenerative disease via Nox1 targeting” (University of Central Florida Research Foundation, Inc., priority 2013, dated 2016):
# Experiments:
# DA neurons in the rat SN = test: 8-oxo-dG immunostaining in the SN of 6-OHDA-treated rats; format: in vivo; conditions: striatal injection
# Protocol: The experiments were carried out on rats, in accordance with the NIH Guide for the Care and Use of Laboratory Animals. All procedures were approved by the local Animal Care and Use Committee. Female Sprague Dawley (SD) rats (Charles River; 8-weeks-old at the time of the beginning of AAV expression or 6-OHDA treatment, 2 or 3 per cage) were maintained in a temperature/humidity-controlled environment under a 12 h light/dark cycle with free access to food and water. All rats were respectively allocated into […], Nox1 shRNA/AAV, T17N Rac1/AAV, and scramble (scb) shRNA/AAV or empty vector/AAV as control groups. Rats were deeply anesthetized (ketamine and xylazine mixture 30 mg/kg, i.p.) and placed in a rat stereotaxic apparatus, a site in the right substantia nigra (SN) [coordinate: anteroposterior (AP), −5.3 mm; mediolateral (ML), +2.0 mm; dorsoventral (DV), −5.8 mm] was selected to inject scb shRNA/AAV (n=8), Nox1 shRNA/AAV (n=16), T17N Rac1/AAV (n=16), and empty vector/AAV (n=28), respectively, according to the grouping. […]
# Rats were deeply anesthetized with sodium pentobarbital (120 mg/kg) and transcardially perfused with saline containing 0.5% sodium nitrite and 10 U/ml heparin sulfate, followed by 4% cold formaldehyde generated from paraformaldehyde in 0.1 M PBS (pH 7.2). […] Mounted slices were evaluated on light microscope.
# Nox1 [1] = test: Nuclear localization of Nox1-EGFP in N27 cells (confocal microscopy); format: cell-based, rat; conditions: N27 cells expressing Nox1-EGFP; 6-OHDA 50 μM 6 h, rotenone 5 μM 18 h
# Source text: The observation that Nox1 was induced by a variety of oxidative stimuli in vitro led one to test Nox1 expression in the rat substantia nigra DA (SNDA) neurons administered with 6-OHDA. […] Neither astrocytes nor microglia expressed Nox1, as verified by co-immunostaining of Nox1 with GFAP (astrocytes) or CD11b (microglia) (FIG. 3B). Increased Nox1 transcript was found in the SN as shown by in situ hybridization (FIG. 3C). […] As early as 3 days post 6-OHDA injection, Nox1 expression was increased in the nucleus and in the cytoplasm of DA neurons (FIG. 4A). […] Nuclear expression of the Nox1/Rac1 complex was further analyzed in N27 cells after treatment with 6-OHDA. First, activated Rac1 was detected by immunoprecipitation of nuclear extracts of N27 cells after a 24 h treatment with 6-OHDA. […] Next, it was established that N27 cells stably expressing Nox1 tagged with EGFP at the C-terminus. […] To examine whether nuclear translocation of Nox1 in dopaminergic cells is observed under different conditions that cause dopaminergic neuronal death, mitochondrial respiratory complex inhibitor, rotenone, was tested.
# Nox1 [2] = test: Nox1 immunostaining in rat SN after striatal 6-OHDA; format: in vivo
# Protocol: The experiments were carried out on rats, in accordance with the NIH Guide for the Care and Use of Laboratory Animals. All procedures were approved by the local Animal Care and Use Committee. Female Sprague Dawley (SD) rats (Charles River; 8-weeks-old at the time of the beginning of AAV expression or 6-OHDA treatment, 2 or 3 per cage) were maintained in a temperature/humidity-controlled environment under a 12 h light/dark cycle with free access to food and water. All rats were respectively allocated into […], Nox1 shRNA/AAV, T17N Rac1/AAV, and scramble (scb) shRNA/AAV or empty vector/AAV as control groups. […]
# Free-floating sections (40 μm) were washed in 0.1 M PBS, incubated in 0.1 M PBS containing 5% normal donkey serum and 0.3% TritonX-100 for 1 h, and subsequently incubated overnight with primary antibodies (TH, 1:2,000; Nox1, 1:200; GFAP, 1:500; CD11b, 1:200) in 2% normal donkey serum in PBS at 4° C. and incubated in a 1:200 dilution of AlexaFluor conjugated donkey anti-rabbit (546) or donkey anti-mouse (488) antibodies for 1 h at room temperature, washed with PBS, incubated in TOTO-3 (1:1,000) in 0.1 M PBS for 5 min, and then mounted sequentially in glass slides using Vectashield. Mounted slices were evaluated for fluorescence under settings for 546, 488, and 660 nm emissions on a confocal microscope (Leica TCS SP5).
compound,measurement,setting,value
"NCCc1cc(O)c(O)cc1O [6-OHDA, 6-hydroxydopamine]",DNA oxidative damage (8-oxo-dG immunoreactivity in the nucleus) caused by toxin,DA neurons in the rat SN,increased DNA oxidative damage
same,nuclear localization of Nox1,Nox1 [1],translocation of Nox1-EGFP into the nucleus
same,Nox1 expression in the substantia nigra vs vehicle,Nox1 [2]; 3 days after striatal injection,significant increase
same,TH-positive neurons showing Nox1 nuclear staining,Nox1 [2]; rat SN after 6-OHDA administration,About 75%
